In brackets after ≈: the same amount, converted by molar mass.
Tests used:
[1] = test system: mixture of Asaia bogorensis, Asaia lannaensis, Gluconobacter oxydans and Gluconacetobacter liquefaciens; conditions: individual active ingredient; substrate iced tea; 200 cfu/mL per bacterium in the mixture
Text: (§1) A drink was contaminated with a particular amount of a mixture of microorganisms and a mixture of preservatives was investigated for efficacy compared to the individual substances. The mixture of bacteria is composed of Asaia bogorensis, Asaia lannaensis, Gluconobacter oxydans and Gluconacetobacter liquefaciens.
(§2) The following relationships apply: QA/Qa+QB/Qb+QC/Qc=SI • Qa=concentration of substance A which is the MIC • Qb=concentration of substance B which is the MIC • Qc=concentration of substance C which is the MIC • QA=concentration of substance A in the concentration of A/B/C at which microbial growth is suppressed • QB=concentration of substance B in the concentration of A/B/C at which microbial growth is suppressed • QC=concentration of substance C the concentration of A/B/C at which microbial growth is suppressed • SI=Synergy Index • SI=1 means additivity • SI>1 means antagonism • SI<1 means synergism

[2] = test system: mixture of Asaia bogorensis, Asaia lannaensis, Gluconobacter oxydans and Gluconacetobacter liquefaciens; assay: microbe, parasite or virus in culture; conditions: 168 h, read-out: MIC ppm after one week
Text: as §1, §2

Structure (SMILES)	MIC ppm after one week [1] [µg/mL]	MIC [2] [µg/mL]
COC(=O)OC(=O)OC [Dimethyl dicarbonate, dimethyl dicarbonate]	300 (≈ 2240 µM)	300 (≈ 2240 µM)
O=S([O-])OS(=O)[O-].[K+].[K+] [Potassium disulphite, potassium disulphite]	60	60
C/C=C/C=C/C(=O)[O-].[K+] [Potassium sorbate, potassium sorbate]		750
O=C([O-])c1ccccc1.[Na+] [Sodium benzoate, sodium benzoate]	550	

From patent publication US9918488B2, “Method for sterilizing drinks contaminated with acetic acid bacteria” (LANXESS Deutschland GmbH, priority 2014, dated 2018)
